How the values were obtained:
[1] = biological target: T1, HSV-1 helicase-primase (Human herpesvirus 1, UniProt P10189+P10236); assay: HSV-1 DNA-dependent ATPase assay (inhibition of HSV-1 helicase-primase); assay type: biochemical; details: Group 1 Table 1
T1 construct: made in house; host or cells: Sf21 insect cells triply infected with recombinant baculoviruses
Source text: A) HSV-1 DNA-Dependent ATP Assay (an in Vitro Assay Based on the Inhibition of HSV-1 Helicase-primase).
a) Preparation of enzyme: HSV-1 helicase-primase holoenzyme was produced in triply infected Sf21 cells using recombinant baculoviruses expressing the UL5, UL8 and UL52 helicase-primase subunits, as described by S. Dracheva et al., J. Biol. Chem. 1995, 270, 14148. The crude enzyme was purified by ammonium sulfate precipitation, Source 15Q® chromatography and Sephacryl® S-300 HR gel filtration (both purification systems can be obtained from Pharmacia Biotech Inc., Montreal, Quebec, Canada), see S. Dracheva et al., supra.
b) Assay: The DNA-dependent ATPase assay, described by J. J. Crute et al., Nucleic Acids Res. 1988, 16, 6585, was modified and used to evaluate the capability of the compounds of Group 1-formula 1 to inhibit HSV-1 helicase-primase activity. The reaction mixtures (80 μL each) contained 40 mM 4-(2-hydroxyethyl)-1-piperazineethanesulfonic acid (HEPES, pH 7.5), 10% (v/v) glycerol, 5.5 mM MgCl2, 1 mM DL-dithiothreitol (DTT), 50 μg/mL acetylated bovine serum albumin, 3.3% (v/v) DMSO, 4 mM ATP, 25 μM single-stranded M13 DNA hybridized to double-tailed 68-mer oligonucleotide and 3 μg/mL HSV-1 helicase-primase. After incubation for 20 min at 34°, formation of inorganic phosphate from hydrolysis of ATP was monitored spectrophotometrically at 650 nm using acidic ammonium molybdate/malachite green reagent, P. A. Lanzetta et al., Anal. Biochem. 1979, 100, 95. DNA-dependent ATPase activity was calculated from the net absorbance change in the presence and absence of inhibition.

[2] = tested on: HCMV (strain AD169); assay: Inhibition of HCMV replication, ELISA assay (Hs-68 cells, p28); assay type: cell-based, human cytomegalovirus; details: Human betaherpesvirus 5, AD169, Hs68; Group 1 Table 1; read-out: ELISA CMV EC50
Procedure: (§1) C) Inhibition of Human Cytomegalovirus (HCMV) replication
(§2) The effect of compounds on the replication of HCMV has been measured by using an ELISA-based assay (ELISA) and a plaque reduction assay (PRA).
Hs-68 cells (ATCC # CRL 1635) were seeded in 96 well microtiter plates at 10,000 cells/well in 100 μL of DMEM medium (Gibco Canada Inc.) supplemented with 10% fetal bovine serum (FBS, Gibco Canada Inc.). The plates were incubated for 3 days at 37° to allow the cells to reach 80-90% confluency prior to the assay.
The medium was removed from wells by aspiration. The cells then were infected at a multiplicity of infection (MOI) of 0.01 PFU/cell with 50 μL of HCMV (strain AD169, ATCC VR-538) in DMEM medium supplemented with 5% heat inactivated FBS (assay medium). The virus was allowed to adsorb to cells for 2 h at 37°. Following viral adsorption, the medium was removed from the wells by aspiration. The cells were washed twice with 200 μL of assay medium to remove unabsorbed virus. The cells were then incubated with or without 100 μL of appropriate concentrations of test reagent in assay medium. After 8 days of incubation at 37°, the extent of viral replication was determined by an ELISA assay which detects the late structural protein p28 of HCMV.
Eight days after infection, the medium was aspirated from the wells. Non-specific binding sites were blocked by adding 200 μL of phosphate buffered saline containing 1% (w/v) bovine serum albumin (blocking buffer) to each well and incubating the plates for 30 min at room temperature. After removal of the blocking buffer by aspiration, the cells were fixed with 100 μL of cold ethanol-acetone solution (95:5) per well. The plates were placed at −20° for 30 min. The plates were washed 4 times with phosphate buffered saline containing 0.05% (v/v) polyoxyethylene sorbitan monolaurate (Tween 20®). Thereafter, 100 μL of mAb UL99 (Advanced Biotechnologies Inc., #13-130-100) recognizing HCMV protein p28 was added to each wells and plates were incubated for 2 h at room temperature. The plates were washed four times with 200 μL of the above-noted phosphate buffered saline/Tween-20® solution. The cells were then incubated with 100 μL of sheep anti-mouse IgGγ horseradish peroxidase conjugated for 2 h at room temperature. The plates were then washed four times with 200 μL of above-noted phosphate buffered saline/Tween-20®solution. Thereafter, 100 μL of ortho phenylenediamine dihydrochloride (OPD, Gibco Canada Inc.) solution was added to each well and the plates were agitated on a microplate shaker for 30 min in the dark. Color development was monitored at 450 nm using a microplate spectrophotometer.
The SAS program was used to calculate the % inhibition of viral replication and to generate EC50 values.
The EC50 values obtained according to this assay method for certain thiazolylphenyl derivatives of this invention are listed in the following tables under the heading ELISA CMV.

[3] = tested on: HCMV (strain AD169); assay: Inhibition of HCMV replication, plaque reduction assay (PRA, Hs-68 cells); assay type: cell-based, human cytomegalovirus; details: Group 1 Table 1, read-out: PRA CMV EC50
Procedure: as §1, §2
Hs-68 cells ( ATCC # CRL 1635) were seeded in 12-well plates at 83,000 cells/well in 1 mL of DMEM medium (Gibco Canada Inc.) supplemented with 10% fetal bovine serum (FBS, Gibco Canada Inc.). The plates were incubated for 3 days at 37° to allow the cells to reach 80-90% confluency prior to the assay.
The medium was removed from the cells by aspiration. The cells were then infected with approximately 50 PFU of HCMV (strain AD169, ATCC VR-538) in DMEM medium supplemented with 5% inactivated FBS (assay medium). The virus was allowed to adsorb to cells for 2 h at 37°. Following viral adsorption, the medium was removed from the wells by aspiration. The cells were then incubated with or without 1 mL of appropriate concentrations of test reagent in assay medium. After 4 days of incubation at 37°, the medium was exchanged with fresh medium containing test compound and 4 days later the cells were fixed with 1% aqueous formaldehyde and stained with a 2% crystal violet solution in 20% ethanol in water. Microscopic plaques were counted using a stereomicroscope. Drug effects were calculated as a percent reduction in the number of plaques in the presence of each drug concentration compared to the number observed in the absence of drug. Ganciclovir was used as a positive control in all experiments.
The EC50 values obtained according to this assay for certain thiazolyl derivatives of this invention are listed in the following tables under the heading PRA CMV.

[4] = Human betaherpesvirus 5, AD169, Hs68

T1 sequence (P10189 whole entry): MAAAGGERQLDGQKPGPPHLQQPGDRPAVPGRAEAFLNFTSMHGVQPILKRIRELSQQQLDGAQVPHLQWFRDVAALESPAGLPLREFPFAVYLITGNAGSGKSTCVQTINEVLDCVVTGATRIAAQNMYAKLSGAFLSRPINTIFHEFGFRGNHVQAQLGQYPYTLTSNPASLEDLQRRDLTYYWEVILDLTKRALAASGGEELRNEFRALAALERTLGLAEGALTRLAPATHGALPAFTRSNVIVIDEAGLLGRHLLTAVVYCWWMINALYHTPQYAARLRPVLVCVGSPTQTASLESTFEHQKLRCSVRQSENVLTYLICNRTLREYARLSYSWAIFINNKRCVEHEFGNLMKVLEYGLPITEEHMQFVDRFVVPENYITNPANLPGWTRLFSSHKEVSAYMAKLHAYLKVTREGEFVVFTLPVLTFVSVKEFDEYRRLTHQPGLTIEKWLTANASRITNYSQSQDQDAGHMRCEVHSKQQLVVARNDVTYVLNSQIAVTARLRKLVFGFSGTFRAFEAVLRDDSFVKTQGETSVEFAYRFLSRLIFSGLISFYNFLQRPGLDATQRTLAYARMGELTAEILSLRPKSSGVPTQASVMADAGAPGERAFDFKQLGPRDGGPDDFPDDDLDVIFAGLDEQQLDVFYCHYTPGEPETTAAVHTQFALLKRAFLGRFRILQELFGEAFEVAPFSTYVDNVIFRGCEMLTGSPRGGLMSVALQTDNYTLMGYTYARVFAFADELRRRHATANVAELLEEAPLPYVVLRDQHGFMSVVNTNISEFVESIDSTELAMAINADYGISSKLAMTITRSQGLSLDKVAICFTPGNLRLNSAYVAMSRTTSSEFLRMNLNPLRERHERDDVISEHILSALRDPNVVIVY
T1 sequence (P10192 whole entry, further chain): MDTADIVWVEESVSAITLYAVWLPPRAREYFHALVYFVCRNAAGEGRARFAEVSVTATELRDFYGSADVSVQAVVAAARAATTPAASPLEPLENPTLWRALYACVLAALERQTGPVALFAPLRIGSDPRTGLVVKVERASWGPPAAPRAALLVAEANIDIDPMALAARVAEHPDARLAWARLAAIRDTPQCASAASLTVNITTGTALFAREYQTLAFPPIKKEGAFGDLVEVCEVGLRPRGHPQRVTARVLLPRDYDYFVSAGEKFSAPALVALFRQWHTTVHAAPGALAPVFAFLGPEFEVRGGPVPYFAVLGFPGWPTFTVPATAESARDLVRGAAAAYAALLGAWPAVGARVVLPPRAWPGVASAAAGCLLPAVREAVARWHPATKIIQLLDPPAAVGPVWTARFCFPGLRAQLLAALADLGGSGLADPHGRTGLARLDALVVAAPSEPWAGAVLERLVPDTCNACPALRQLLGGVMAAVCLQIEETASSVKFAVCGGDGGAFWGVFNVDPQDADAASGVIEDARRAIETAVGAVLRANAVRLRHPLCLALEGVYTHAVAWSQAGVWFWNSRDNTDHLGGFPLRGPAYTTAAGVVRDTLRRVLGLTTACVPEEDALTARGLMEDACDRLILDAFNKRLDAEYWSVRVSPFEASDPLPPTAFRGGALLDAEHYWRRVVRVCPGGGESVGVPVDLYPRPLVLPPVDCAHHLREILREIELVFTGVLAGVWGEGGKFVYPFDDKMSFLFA
T1 sequence (P10236 whole entry): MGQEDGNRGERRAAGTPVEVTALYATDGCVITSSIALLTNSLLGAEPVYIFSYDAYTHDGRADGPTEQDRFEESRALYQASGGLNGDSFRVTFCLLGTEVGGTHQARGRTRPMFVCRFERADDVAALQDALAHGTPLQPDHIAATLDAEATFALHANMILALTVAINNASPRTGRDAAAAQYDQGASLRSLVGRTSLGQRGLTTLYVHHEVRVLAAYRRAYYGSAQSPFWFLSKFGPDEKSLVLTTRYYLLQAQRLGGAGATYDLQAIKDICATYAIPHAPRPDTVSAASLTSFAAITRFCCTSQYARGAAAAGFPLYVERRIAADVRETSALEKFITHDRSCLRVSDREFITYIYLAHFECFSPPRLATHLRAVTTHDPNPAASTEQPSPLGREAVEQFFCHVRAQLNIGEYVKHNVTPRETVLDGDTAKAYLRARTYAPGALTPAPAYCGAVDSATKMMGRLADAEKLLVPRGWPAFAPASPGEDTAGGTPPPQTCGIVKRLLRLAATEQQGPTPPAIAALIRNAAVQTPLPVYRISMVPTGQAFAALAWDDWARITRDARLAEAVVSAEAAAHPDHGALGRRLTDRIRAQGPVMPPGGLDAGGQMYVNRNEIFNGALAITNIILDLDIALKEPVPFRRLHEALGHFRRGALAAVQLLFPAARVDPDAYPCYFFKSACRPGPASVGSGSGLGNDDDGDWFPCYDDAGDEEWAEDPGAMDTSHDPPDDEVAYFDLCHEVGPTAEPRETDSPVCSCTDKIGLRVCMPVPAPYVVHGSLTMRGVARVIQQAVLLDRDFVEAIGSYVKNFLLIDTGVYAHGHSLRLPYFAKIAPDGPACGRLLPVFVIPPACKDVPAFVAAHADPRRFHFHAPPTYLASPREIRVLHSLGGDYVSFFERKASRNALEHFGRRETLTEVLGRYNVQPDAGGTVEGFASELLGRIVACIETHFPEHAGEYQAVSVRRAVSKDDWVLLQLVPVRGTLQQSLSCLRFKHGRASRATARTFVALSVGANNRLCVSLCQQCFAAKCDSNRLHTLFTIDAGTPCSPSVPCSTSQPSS

| Structure (SMILES) | IC50 [1] | EC50 [2] | EC50 [3, 4] | also measured |
| --- | --- | --- | --- | --- |
| Nc1nc(-c2ccc(NC(=O)CNCc3ccccc3)cc2)cs1 [Example 2, N-{4-(2-Amino-4-thiazolyl)phenyl}-2-{(phenylmethyl)-amino}acetamide] | – | – | – | melting point: 162 to 163 °C |
| NC(=O)N(Cc1ccc(F)cc1)c1ccc(-c2csc(N)n2)cc1 [Example 2, N-{4-(2-Amino-4-thiazolyl)phenyl}-N-{(4-fluorophenyl)methyl}urea] | – | – | – | melting point: 227 to 230 °C |
| Nc1nc(-c2ccc(NC(=O)CN(Cc3ccc(Cl)cc3)C(=O)c3ccncc3)cc2)cs1 [Example 55] | 0.57 µM | 11.9 µM | – | – |
| Nc1nc(-c2ccc(NC(=O)CN(CC3CCCCC3)C(=O)c3ccncc3)cc2)cs1 [Example 57] | 3.9 µM | 2.6 µM | 15.8 µM | – |
| CC(C)(C)OC(=O)N1CCC(C(=O)N(CC(=O)Nc2ccc(-c3csc(N)n3)cc2)CC2CCCCC2)CC1 [Example 61] | 4.4 µM | – | – | – |
| Nc1nc(-c2ccc(NC(=O)CN(CC3CCCCC3)C(=O)C3CCNCC3)cc2)cs1 [Example 62] | – | – | – | inhibition of HSV-1 helicase-primase ([1]; at 50 μM): 29% inhi- bition at 50 μM |
| Nc1nc(-c2ccc(NC(=O)CN(CCc3ccccc3)C(=O)C3CCCCC3)cc2)cs1 [Example 68] | 0.18 µM | > 5 µM | – | – |
| Nc1nc(-c2ccc(NC(=O)CN(Cc3ccc(Cl)cc3)C(=O)CC3CCCCC3)cc2)cs1 [Example 69] | 0.43 µM | – | 8 µM | – |
| Nc1nc(-c2ccc(NC(=O)CN(CC3CCCCC3)C(=O)CC3CCCC3)cc2)cs1 [Example 75] | 0.21 µM | 48 µM | – | – |
| [N-]=[N+]=Nc1ccc(C(=O)N(CC(=O)Nc2ccc(-c3csc(N)n3)cc2)Cc2ccncc2)cc1 [Example 78] | 1 µM | – | – | – |
| CC(C)CN(CC(=O)Nc1ccc(-c2csc(N)n2)cc1)C(=O)C1CCCCC1 [Example 81] | 0.48 µM | 14 µM | – | – |
| Nc1nc(-c2ccc(NC(=O)CN(Cc3ccc(F)cc3)C(=O)C3CCCCC3)cc2)cs1 [Example 83] | 0.042 µM | 8.1 µM | – | – |
| CC(C)COC(=O)N(CC(=O)Nc1ccc(-c2csc(N)n2)cc1)Cc1ccccc1 [Example 86] | 0.17 µM | 3.8 µM | 24 µM | – |
| CC(C)(C)NC(=O)N(CC(=O)Nc1ccc(-c2csc(N)n2)cc1)Cc1ccccc1 [Example 92] | 0.076 µM | 0.9 µM | 65 µM | – |
| CN(C(=O)N(CC(=O)Nc1ccc(-c2csc(N)n2)cc1)Cc1ccccc1)C(C)(C)C [Example 94] | 0.026 µM | > 8 µM | > 24 µM | – |
| Nc1nc(-c2ccc(NC(=O)CN(Cc3ccccc3)C(=O)N3CCOCC3)cc2)cs1 [Example 95] | 0.14 µM | 57 µM | 90 µM | – |

| Structure (SMILES) | IC50 [1] | EC50 [2] | EC50 [3, 4] | also measured |
| --- | --- | --- | --- | --- |
| Nc1nc(-c2ccc(NC(=O)CN(Cc3ccccc3)S(=O)(=O)N3CCOCC3)cc2)cs1 [Example 96] | 0.29 µM | 0.35 µM | 12 µM | – |
| CC(C)(C)OC(=O)N(CC(=O)Nc1ccc(-c2csc(N)n2)cc1)CC1CCCCC1 [Example 100] | 0.76 µM | 14 µM | – | – |
| Cc1ccccc1CN(CC(=O)Nc1ccc(-c2csc(N)n2)cc1)C(=O)c1ccncc1 [Example 102] | 0.19 µM | 11 µM | 18 µM | – |
| C[C@@H](c1ccccc1)N(CC(=O)Nc1ccc(-c2csc(N)n2)cc1)C(=O)NC(C)(C)C [Example 105] | 0.7 µM | 11 µM | – | – |
| C[C@@H](C1CCCCC1)N(CC(=O)Nc1ccc(-c2csc(N)n2)cc1)C(=O)OC(C)(C)C [Example 108] | 0.46 µM | – | – | – |
| CC(C)CN(CC(=O)Nc1ccc(-c2csc(N)n2)cc1)C(=O)OC(C)(C)C [Example 112] | 1.8 µM | – | – | – |
| Nc1nc(-c2ccc(NC(=O)CN(Cc3ccccc3)C(=O)Cc3ccncc3)cc2)cs1 [Example 114] | 0.8 µM | – | 23 µM | – |
| Nc1nc(-c2ccc(NC(=O)CN(Cc3ccccc3F)C(=O)c3ccncc3)cc2)cs1 [Example 118] | 0.047 µM | – | 60 µM | – |
| Cc1cccc(C)c1OCC(=O)N(CC(=O)Nc1ccc(-c2csc(N)n2)cc1)Cc1ccccc1 [Example 121] | 0.49 µM | – | – | EC50 [3]: > 31 µM |
| Cc1cc(C)nc(SCC(=O)N(CC(=O)Nc2ccc(-c3csc(N)n3)cc2)Cc2ccccc2)n1 [Example 122] | – | – | – | EC50 [3]: 3.3 µM |
| CC(c1ccccc1)N(CC(=O)Nc1ccc(-c2csc(N)n2)cc1)C(=O)c1cccnc1 (stereo not shown) [Example 134] | 0.26 µM | – | – | EC50 [3]: 18 µM |
| C[C@@H](c1ccccc1)N(CC(=O)Nc1ccc(-c2csc(N)n2)cc1)C(=O)Cc1ccccn1 [Example 135] | 0.78 µM | – | 38 µM | – |
| CC(c1ccccc1)N(CC(=O)Nc1ccc(-c2csc(N)n2)cc1)C(=O)Cc1ccccn1 (stereo not shown) [Example 136] | 4.2 µM | – | – | EC50 [3]: 31 µM |
| CC(c1ccccc1)N(CC(=O)Nc1ccc(-c2csc(N)n2)cc1)C(=O)c1ccncc1 (stereo not shown) [Example 137] | 0.98 µM | – | – | EC50 [3]: 49 µM |
| CN1CCC(C(=O)N(CC(=O)Nc2ccc(-c3csc(N)n3)cc2)CC2CCCCC2)CC1 [Example 138] | > 50 µM | 31.6 µM | – | – |
